Measurements from patent US20200239530A1, “COMPOUNDS AND METHODS OF MODULATING PROTEIN DEGRADATION” (Vividion Therapeutics, Inc., priority 2017, published 2020).
Read-outs that look alike come from different tables or passages of the source.

Experiments:
Assay in all cases: Cysteine liganding, probe competition
Assay type in all cases: binding
[1] = target: T1, UniProt Q8WV22 (Homo sapiens, UniProt Q8WV22)
T1 construct: Cells were resuspended in cold PBS on ice and sonicated with a probe sonicator to achieve lysis; endogenous in cells
T1 sequence (Q8WV22 1-266): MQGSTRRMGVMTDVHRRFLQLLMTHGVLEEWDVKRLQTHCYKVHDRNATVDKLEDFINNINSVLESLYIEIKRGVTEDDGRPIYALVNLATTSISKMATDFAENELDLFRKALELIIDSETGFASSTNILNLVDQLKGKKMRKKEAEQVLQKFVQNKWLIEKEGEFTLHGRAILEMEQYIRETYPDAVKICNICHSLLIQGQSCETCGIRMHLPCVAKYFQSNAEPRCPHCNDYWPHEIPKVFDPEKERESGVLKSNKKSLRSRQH
Description: (§1) The following 96-well sample prep protocol was used for sample preparation.

[2] = target: T2, UniProt Q9BZR9 (Homo sapiens, UniProt Q9BZR9)
T2 construct: 200 μL of lysate containing 5 mg/ml proteome was treated with 2 μL of 100× compound stock; endogenous in cells
T2 sequence (Q9BZR9 1-551): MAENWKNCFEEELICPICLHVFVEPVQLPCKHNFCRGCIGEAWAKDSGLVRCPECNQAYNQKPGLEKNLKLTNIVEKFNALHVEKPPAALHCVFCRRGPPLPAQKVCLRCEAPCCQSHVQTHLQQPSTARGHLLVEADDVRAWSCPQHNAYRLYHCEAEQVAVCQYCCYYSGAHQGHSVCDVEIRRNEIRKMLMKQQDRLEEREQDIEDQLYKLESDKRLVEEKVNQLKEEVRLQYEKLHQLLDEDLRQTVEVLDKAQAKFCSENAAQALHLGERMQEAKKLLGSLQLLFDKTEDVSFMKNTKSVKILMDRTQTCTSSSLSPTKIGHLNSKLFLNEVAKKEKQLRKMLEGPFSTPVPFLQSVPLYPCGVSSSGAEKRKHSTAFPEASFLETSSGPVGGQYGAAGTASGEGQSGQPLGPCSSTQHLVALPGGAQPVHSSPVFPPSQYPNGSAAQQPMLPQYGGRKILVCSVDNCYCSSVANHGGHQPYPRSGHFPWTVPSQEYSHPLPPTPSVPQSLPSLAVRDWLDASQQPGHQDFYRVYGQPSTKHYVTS
Description: as §1

[3] = target: T3, UniProt Q9Y2Z0 (Homo sapiens, UniProt Q9Y2Z0); details: read-out: percent_inhibition
T3 construct: 200 μL of lysate containing 5 mg/ml proteome was treated with 2 μL of 100× compound stock; endogenous in cells
T3 sequence (Q9Y2Z0 whole entry, change not shown): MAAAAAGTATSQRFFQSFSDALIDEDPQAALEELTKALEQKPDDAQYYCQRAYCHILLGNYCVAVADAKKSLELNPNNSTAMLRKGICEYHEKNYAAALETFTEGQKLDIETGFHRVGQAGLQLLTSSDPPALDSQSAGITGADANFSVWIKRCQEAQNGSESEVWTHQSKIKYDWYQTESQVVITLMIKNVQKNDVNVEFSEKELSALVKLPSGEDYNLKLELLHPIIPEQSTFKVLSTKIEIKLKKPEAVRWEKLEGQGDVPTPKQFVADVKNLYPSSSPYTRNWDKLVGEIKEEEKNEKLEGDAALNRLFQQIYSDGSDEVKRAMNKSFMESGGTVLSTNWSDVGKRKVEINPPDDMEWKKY
Description: as §1

[4] = target: T4, UniProt Q8IWR1 (Homo sapiens, UniProt Q8IWR1)
T4 construct: 200 μL of lysate containing 5 mg/ml proteome was treated with 2 μL of 100× compound stock; endogenous in cells
T4 sequence (Q8IWR1 1-403): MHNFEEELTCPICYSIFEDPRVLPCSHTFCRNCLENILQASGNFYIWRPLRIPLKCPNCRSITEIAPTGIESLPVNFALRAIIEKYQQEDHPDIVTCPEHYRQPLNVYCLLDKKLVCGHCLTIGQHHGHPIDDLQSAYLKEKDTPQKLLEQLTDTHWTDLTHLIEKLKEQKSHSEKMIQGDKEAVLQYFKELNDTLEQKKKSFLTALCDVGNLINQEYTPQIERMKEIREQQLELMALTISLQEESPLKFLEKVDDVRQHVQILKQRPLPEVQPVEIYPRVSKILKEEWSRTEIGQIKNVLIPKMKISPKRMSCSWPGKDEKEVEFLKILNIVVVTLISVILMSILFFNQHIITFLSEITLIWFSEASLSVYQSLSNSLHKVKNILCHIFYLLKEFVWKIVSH
Description: as §1

[5] = target: T5, UniProt Q969V5 (Homo sapiens, UniProt Q969V5); details: for percent inhibition: 100 uM
T5 construct: Cells were resuspended in cold PBS on ice and sonicated with a probe sonicator to achieve lysis; endogenous in cells
T5 sequence (Q969V5 1-352): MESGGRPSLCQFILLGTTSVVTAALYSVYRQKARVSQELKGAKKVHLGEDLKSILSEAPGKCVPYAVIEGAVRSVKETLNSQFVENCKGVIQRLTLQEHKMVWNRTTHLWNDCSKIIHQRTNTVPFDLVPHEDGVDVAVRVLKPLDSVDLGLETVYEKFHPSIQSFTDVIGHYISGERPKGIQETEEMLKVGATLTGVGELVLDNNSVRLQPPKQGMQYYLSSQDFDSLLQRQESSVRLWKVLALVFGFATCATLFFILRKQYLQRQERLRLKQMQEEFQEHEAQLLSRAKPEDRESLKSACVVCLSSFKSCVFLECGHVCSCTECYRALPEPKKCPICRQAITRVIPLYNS
Description: as §1

[6] = target: T6, UniProt Q9UPQ4 (Homo sapiens, UniProt Q9UPQ4)
T6 construct: 200 μL of lysate containing 5 mg/ml proteome was treated with 2 μL of 100× compound stock; endogenous in cells
T6 sequence (Q9UPQ4 1-493): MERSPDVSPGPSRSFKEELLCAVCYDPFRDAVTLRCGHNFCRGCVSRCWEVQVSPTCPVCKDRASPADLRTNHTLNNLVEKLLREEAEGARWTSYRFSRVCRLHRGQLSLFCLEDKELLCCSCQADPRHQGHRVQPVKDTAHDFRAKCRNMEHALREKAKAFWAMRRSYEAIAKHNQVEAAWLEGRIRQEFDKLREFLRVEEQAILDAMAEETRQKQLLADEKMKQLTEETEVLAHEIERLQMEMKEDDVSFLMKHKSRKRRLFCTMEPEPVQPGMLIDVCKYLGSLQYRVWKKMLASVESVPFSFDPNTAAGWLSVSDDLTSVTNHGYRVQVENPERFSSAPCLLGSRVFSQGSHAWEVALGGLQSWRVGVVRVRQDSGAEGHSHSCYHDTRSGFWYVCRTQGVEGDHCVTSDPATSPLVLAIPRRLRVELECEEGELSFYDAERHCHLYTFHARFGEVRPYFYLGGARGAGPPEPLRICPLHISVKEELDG
Description: as §1

[7] = read-out: KB05_100 uM_percent_inhibition
[8] = 500 uM, read-out: KB02_500 uM_percent_inhibition

inhibition at 100 µM ([1]; 100 uM, read-out: KB05_100 uM_percent_inhibition) [%]	KB05_500 uM_percent_inhibition ([1]; 500 uM) [%]	inhibition at 500 µM ([1]; 500 uM, read-out: KB05_500 uM_percent_inhibition) [%]	KB05_100 uM_percent_inhibition ([2]; 100 uM) [%]	inhibition at 100 µM [2, 7] [%]	inhibition at 100 µM [4, 7] [%]	Compound	inhibition at 100 µM [3] [%]	KB03_100 uM_percent_inhibition ([1]; 100 uM) [%]	KB03_100 uM_percent_inhibition ([2]; 100 uM) [%]	percent inhibition [5] [%]	KB03_500 uM_percent_inhibition ([6]; 500 uM) [%]	inhibition at 100 µM ([5]; read-out: percent inhibition) [%]	inhibition at 100 µM ([4]; read-out: KB02_100 uM_percent_inhibition) [%]	KB02_500 uM_percent_inhibition ([4]; 500 uM) [%]	inhibition at 500 µM [4, 8] [%]	inhibition at 100 µM ([6]; 100 uM, read-out: KB02_100 uM_percent_inhibition) [%]	inhibition at 500 µM [6, 8] [%]
13	66	64	16	10	38	C=CC(=O)N(c1ccccc1)c1ccc(Br)cc1 [KB05]	31										
						O=C(CCl)Nc1cc(C(F)(F)F)cc(C(F)(F)F)c1 [KBO3]		2	39	38	32						
						COc1ccc2c(c1)CCCN2C(=O)CCl [KB02]	20			35		25	46	66	58	10	27
